Results reported in ChEMBL document CHEMBL3120127, “2,4-Diaminothienopyrimidines as orally active antimalarial agents” (J Med Chem, 2014).
In brackets after ≈: the same amount, converted by molar mass.

system: Rattus norvegicus; experiment: AUC (0 to infinity) in Sprague-Dawley rat at 19 mg/kg, po; type: ADME, organism-based, Plasma; design: time infinity, dose 19 mg/kg, route oral; settings: in vivo

SMILES	AUC [µM·min]
CNc1nc(NCCCN(C)C)c2sc(-c3ccccc3)cc2n1	125

system: not listed separately; experiment: Plasma concentration in Swiss outbred mouse infected with Plasmodium berghei at 50 mg/kg, po measured at 1 hr; type: ADME, organism-based; design: dose 50 mg/kg, route oral; settings: not given

SMILES	concentration at 1 h [nM]
CNc1nc(NCCCN(C)C)c2sc(-c3ccc(C(F)(F)F)cc3)cc2n1	410
CNc1nc(NCCCN(C)C)c2sc(-c3ccc(F)cc3)cc2n1	140

system: not listed separately; experiment: AUC (0 to infinity) in Sprague-Dawley rat at 4 mg/kg, iv; type: ADME, organism-based; design: dose 4 mg/kg, route intravenous, time infinity; settings: plasma

SMILES	AUC(0-inf) [µM·h]
CNc1nc(NCCCN(C)C)c2sc(-c3ccccc3)cc2n1	1.28

system: not listed separately; experiment: Plasma concentration in Swiss outbred mouse infected with Plasmodium berghei at 50 mg/kg, po measured at 24 hrs; type: ADME, organism-based; design: dose 50 mg/kg, route oral; settings: not given

SMILES	concentration at 24 h [nM]
CNc1nc(NCCCN(C)C)c2sc(-c3ccc(C(F)(F)F)cc3)cc2n1	210
CNc1nc(NCCCN(C)C)c2sc(-c3ccc(F)cc3)cc2n1	40

system: Rattus norvegicus; experiment: Cmax in Sprague-Dawley rat at 19 mg/kg, po; type: ADME, organism-based; design: dose 19 mg/kg, route oral; settings: in vivo

SMILES	Cmax [nM]
CNc1nc(NCCCN(C)C)c2sc(-c3ccccc3)cc2n1	8

system: not listed separately; experiment: Oral bioavailability in Sprague-Dawley rat at 19 mg/kg; type: ADME, organism-based; settings: in vivo

SMILES	bioavailability [%]
CNc1nc(NCCCN(C)C)c2sc(-c3ccccc3)cc2n1	34

system: not listed separately; experiment: Volume of distribution at steady state in Sprague-Dawley rat blood at 4 mg/kg, iv; type: ADME, organism-based; design: dose 4 mg/kg, route intravenous; settings: read-out: Vdss

SMILES	Vd [L/kg]
CNc1nc(NCCCN(C)C)c2sc(-c3ccccc3)cc2n1	37

system: not listed separately; experiment: Solubility of the compound in phosphate buffer at pH 6.5 by HPLC-DAD-MS analysis; type: physicochemical; settings: not given

SMILES	solubility [µg/mL]
CNc1nc(NCCCN(C)C)c2sc(-c3cncnc3)cc2n1	194 (≈ 565 µM)
CNc1nc(NCCCN(C)C)c2cc(-c3ccccc3)sc2n1	184 (≈ 539 µM)
CNc1nc(NCCCN(C)C)c2oc(-c3ccccc3)cc2n1	203 (≈ 624 µM)
CNc1nc(NCCCN(C)C)c2sc(-c3ccc(-n4cccn4)cc3)cc2n1	191 (≈ 469 µM)
CNc1nc(NCCCN(C)C)c2sc(-c3cc(C(F)(F)F)cc(C(F)(F)F)c3)cc2n1	130 (≈ 272 µM)
CNc1nc(NCCCN(C)C)c2sc(-c3ccoc3)cc2n1	203 (≈ 612 µM)
CNc1nc(NCCCN(C)C)c2sc(-c3ccc(C(F)(F)F)cc3)cc2n1	177 (≈ 432 µM)
CNc1nc(NCCCN(C)C)c2sc(-c3cccc(C(F)(F)F)c3)cc2n1	160 (≈ 391 µM)

system: not listed separately; experiment: Volume of distribution at steady state in Sprague-Dawley rat plasma at 4 mg/kg, iv; type: ADME, organism-based; design: dose 4 mg/kg, route intravenous; settings: read-out: Vdss

SMILES	Vd [L/kg]
CNc1nc(NCCCN(C)C)c2sc(-c3ccccc3)cc2n1	139

system: Rattus norvegicus; experiment: Tmax in Sprague-Dawley rat at 19 mg/kg, po; type: ADME, organism-based; design: dose 19 mg/kg, route oral; settings: in vivo

SMILES	Tmax [h]
CNc1nc(NCCCN(C)C)c2sc(-c3ccccc3)cc2n1	1.75

system: not listed separately; experiment: Solubility of the compound in 0.01 M HCl at pH 2; type: physicochemical; settings: not given

SMILES	solubility [µg/mL]
CNc1nc(NCCCN(C)C)c2sc(-c3ccc(N4CCNCC4)cc3)cc2n1	> 100
CNc1nc(NCCCN(C)C)c2sc(-c3cncnc3)cc2n1	214 (≈ 623 µM)
CNc1nc(NCCCN(C)C)c2sc(-c3ccc(S(C)(=O)=O)cc3)cc2n1	> 100
CNc1nc(NCCCN(C)C)c2cc(-c3ccccc3)sc2n1	216 (≈ 633 µM)
CNc1nc(NCCCN(C)C)c2oc(-c3ccccc3)cc2n1	214 (≈ 658 µM)
CNc1nc(NCCCN(C)C)c2sc(-c3cccc(C#N)c3)cc2n1	> 100
CNc1nc(NCCCN(C)C)c2sc(-c3ccc(C(F)(F)F)cc3Cl)cc2n1	> 100
CNc1nc(NCCCN(C)C)c2sc(-c3ccc(-n4cccn4)cc3)cc2n1	217 (≈ 532 µM)
CNc1nc(NCCCN(C)C)c2sc(-c3ccc(OC)nc3)cc2n1	> 100
CNc1nc(NCCCN(C)C)c2sc(-c3cc(C(F)(F)F)cc(C(F)(F)F)c3)cc2n1	186 (≈ 390 µM)
CNc1nc(NCCCN(C)C)c2sc(-c3ccc(C(F)(F)F)nc3)cc2n1	> 100
CNc1nc(NCCCN(C)C)c2sc(-c3ccc(OC(F)(F)F)cc3)cc2n1	> 100
CNc1nc(NCCCN(C)C)c2sc(-c3ccc(NS(C)(=O)=O)cc3)cc2n1	> 100
CNc1nc(NCCCN(C)C)c2sc(-c3ccoc3)cc2n1	221 (≈ 667 µM)
CNc1nc(NCCCN(C)C)c2sc(-c3ccc(C(F)(F)F)cc3)cc2n1	240 (≈ 586 µM)
CNc1nc(NCCCN(C)C)c2sc(-c3cccc(C(F)(F)F)c3)cc2n1	180 (≈ 440 µM)
CNc1nc(NCCCN(C)C)c2sc(-c3ccc(C#N)cc3)cc2n1	> 100
CNc1nc(NCCCN(C)C)c2sc(-c3ccccc3)cc2n1	> 100
CNc1nc(NCCCN(C)C)c2sc(-c3cccc(OC(F)(F)F)c3)cc2n1	> 100
CNc1nc(NCCCN(C)C)c2sc(-c3ccc(C(C)=O)cc3)cc2n1	> 100
CNc1nc(NCCCN(C)C)c2sc(-c3ccc(N4CCOCC4)cc3)cc2n1	12.5 (≈ 29.3 µM)
CNc1nc(NCCCN(C)C)c2sc(-c3ccc4nonc4c3)cc2n1	> 100
CNc1nc(NCCCN(C)C)c2sc(-c3ccc(N)cc3)cc2n1	> 100
CNc1nc(NCCCN(C)C)c2sc(-c3ccc(C(=O)N4CCOCC4)cc3)cc2n1	> 100

system: not listed separately; experiment: physchem; settings: octanol/water, pH 7.4

SMILES	chromatographic logD
CNc1nc(NCCCN(C)C)c2sc(-c3ccc(N4CCNCC4)cc3)cc2n1	3.5
CNc1nc(NCCCN(C)C)c2sc(-c3ccc(S(C)(=O)=O)cc3)cc2n1	2.1
CNc1nc(NCCCN(C)C)c2sc(-c3cccc(C#N)c3)cc2n1	2.9
CNc1nc(NCCCN(C)C)c2sc(-c3ccc(C(F)(F)F)cc3Cl)cc2n1	4.5
CNc1nc(NCCCN(C)C)c2sc(-c3ccc(OC)nc3)cc2n1	2.8
CNc1nc(NCCCN(C)C)c2sc(-c3ccc(C(F)(F)F)nc3)cc2n1	3
CNc1nc(NCCCN(C)C)c2sc(-c3ccc(OC(F)(F)F)cc3)cc2n1	4.6
CNc1nc(NCCCN(C)C)c2sc(-c3ccc(NS(C)(=O)=O)cc3)cc2n1	2.1
CNc1nc(NCCCN(C)C)c2sc(-c3ccc(C(F)(F)F)cc3)cc2n1	4.1
CNc1nc(NCCCN(C)C)c2sc(-c3ccccc3)cc2n1	2.2
CNc1nc(NCCCN(C)C)c2sc(-c3cccc(OC(F)(F)F)c3)cc2n1	4.3
CNc1nc(NCCCN(C)C)c2sc(-c3ccc(C(C)=O)cc3)cc2n1	2.9
CNc1nc(NCCCN(C)C)c2sc(-c3ccc(N4CCOCC4)cc3)cc2n1	3
CNc1nc(NCCCN(C)C)c2sc(-c3ccc4nonc4c3)cc2n1	3.3
CNc1nc(NCCCN(C)C)c2sc(-c3ccc(N)cc3)cc2n1	2.3
CNc1nc(NCCCN(C)C)c2sc(-c3ccc(C(=O)N4CCOCC4)cc3)cc2n1	2.2

system: not listed separately; experiment: Solubility of the compound in phosphate buffer at pH 6.5 by nephlometric analysis; type: physicochemical; settings: not given

SMILES	solubility kinetic [µg/mL]
CNc1nc(NCCCN(C)C)c2sc(-c3ccc(N4CCNCC4)cc3)cc2n1	12.5 (≈ 29.4 µM)
CNc1nc(NCCCN(C)C)c2sc(-c3ccc(S(C)(=O)=O)cc3)cc2n1	25 (≈ 59.6 µM)
CNc1nc(NCCCN(C)C)c2sc(-c3cccc(C#N)c3)cc2n1	25 (≈ 68.2 µM)
CNc1nc(NCCCN(C)C)c2sc(-c3ccc(C(F)(F)F)cc3Cl)cc2n1	> 100
CNc1nc(NCCCN(C)C)c2sc(-c3ccc(OC)nc3)cc2n1	25 (≈ 67.1 µM)
CNc1nc(NCCCN(C)C)c2sc(-c3ccc(C(F)(F)F)nc3)cc2n1	12.5 (≈ 30.5 µM)
CNc1nc(NCCCN(C)C)c2sc(-c3ccc(OC(F)(F)F)cc3)cc2n1	> 100
CNc1nc(NCCCN(C)C)c2sc(-c3ccc(NS(C)(=O)=O)cc3)cc2n1	25 (≈ 57.5 µM)
CNc1nc(NCCCN(C)C)c2sc(-c3ccc(C#N)cc3)cc2n1	50 (≈ 136 µM)
CNc1nc(NCCCN(C)C)c2sc(-c3ccccc3)cc2n1	> 100
CNc1nc(NCCCN(C)C)c2sc(-c3cccc(OC(F)(F)F)c3)cc2n1	> 100
CNc1nc(NCCCN(C)C)c2sc(-c3ccc(C(C)=O)cc3)cc2n1	12.5 (≈ 32.6 µM)
CNc1nc(NCCCN(C)C)c2sc(-c3ccc(N4CCOCC4)cc3)cc2n1	12.5 (≈ 29.3 µM)
CNc1nc(NCCCN(C)C)c2sc(-c3ccc4nonc4c3)cc2n1	25 (≈ 65.2 µM)
CNc1nc(NCCCN(C)C)c2sc(-c3ccc(N)cc3)cc2n1	12.5 (≈ 35.1 µM)
CNc1nc(NCCCN(C)C)c2sc(-c3ccc(C(=O)N4CCOCC4)cc3)cc2n1	25 (≈ 55 µM)

system: not listed separately; experiment: Plasma concentration in Swiss outbred mouse infected with Plasmodium berghei at 50 mg/kg, po measured at 4 hrs; type: ADME, organism-based; design: dose 50 mg/kg, route oral; settings: not given

SMILES	concentration at 4 h [nM]
CNc1nc(NCCCN(C)C)c2sc(-c3ccc(C(F)(F)F)cc3)cc2n1	220
CNc1nc(NCCCN(C)C)c2sc(-c3ccc(F)cc3)cc2n1	90
